Experimental data reported in ChEMBL document CHEMBL3826947, “New 4-Acyl-1-phenylaminocarbonyl-2-phenylpiperazine Derivatives as Potential Inhibitors of Adenovirus Infection. Synthesis, Biological Evaluation, and Structure-activity Relationships” (J Med Chem, 2016).
Calls of active or inactive are those of the source. No cut-off for these calls is given here.

Assays:
Human adenovirus 5 [1] = experiment: Antiviral activity against HAdV5 infected in human A549 cells assessed as inhibition of viral genome entry in nucleus by measuring nuclear associated viral DNA level at 50 uM after 45 mins by real time PCR method (reference value: 78.55 +/- 1.37%); format: functional; parameters: scale not given: the % may be the effect or the level left
Human adenovirus 5 [2] = experiment: Antiviral activity against HAdV5 infected in human A549 cells assessed as inhibition of viral DNA replication at 50 uM after 24 hrs by quantitative real time PCR method relative to control; format: functional; details: Human mastadenovirus C, A549, 24 h
[3] = Cytotoxicity against human A549 cells assessed as cell viability after 48 hrs by Alamar blue assay; format: cell-based
Human adenovirus 5 [4] = experiment: Antiviral activity against HAdV5 infected in 293beta5 cells assessed as inhibition of plaque formation after 7 days by GFP reporter gene assay; format: functional, organism-based; details: for IC50: Human mastadenovirus C, 293beta5, 168 h
[5] = Antiviral activity against HAdV16 infected in human A549 cells assessed as reduction in viral yield at 50 uM after 48 hrs by virus burst size assay relative to control; format: functional, Human adenovirus 16
Human adenovirus 5 [6] = experiment: Antiviral activity against HAdV5 infected in 293beta5 cells assessed as inhibition of plaque formation at 10 uM after 7 days by GFP reporter gene assay relative to control; format: functional; details: Human mastadenovirus C, 293beta5, 168 h
[7] = Selectivity index, ratio of CC50 for human A549 cells to IC50 for inhibition of HAdV5 plaque formation in 293beta5 cells; format: functional
A549 = experiment: Effect on GAPDH gene expression in human A549 cells at 50 uM after 24 hrs by quantitative real time PCR method; format: ADME, cell-based; details: a549, 24 h
Human adenovirus 5 [8] = experiment: Antiviral activity against HAdV5 infected in human A549 cells assessed as reduction in viral yield at 50 uM after 48 hrs by virus burst size assay relative to control; format: functional
[9] = Antiviral activity against HAdV16 infected in 293beta5 cells assessed as inhibition of plaque formation after 7 days by GFP reporter gene assay; format: functional, cell-based, Human adenovirus 16; details: Human mastadenovirus B, 293beta5, 168 h
[10] = Selectivity index, ratio of CC50 for human A549 cells to IC50 for inhibition of HAdV16 plaque formation in 293beta5 cells; format: functional
Human adenovirus 5 [11] = experiment: Antiviral activity against HAdV5 infected in human A549 cells assessed as inhibition of viral entry preincubated for 45 mins followed by cell addition measured after 48 hrs by GFP reporter gene assay; format: functional, organism-based; details: for IC50: Human mastadenovirus C
Human adenovirus 5 [12] = experiment: Antiviral activity against HAdV5 infected in human A549 cells assessed as inhibition of viral entry at 50 uM preincubated for 45 mins followed by cell addition measured after 48 hrs by GFP reporter gene assay relative to control; format: functional; details: Human mastadenovirus C
Human adenovirus 5 [13] = experiment: Antiviral activity against HAdV5 assessed as inhibition of E1A mRNA transcription measured 6 hrs post infection; format: functional, organism-based

SMILES | IC50 (Human adenovirus 5 [4]) [µM] | IC50 [9] [µM] | IC50 (Human adenovirus 5 [11]) [µM] | Activity (Human adenovirus 5 [1]) [%] | inhibition at 50 µM (Human adenovirus 5 [2]) [%] | CC50 at 48 h [3] [µM] | inhibition (Human adenovirus 5 [4]) | fold change (FC) [5] | inhibition at 10 µM (Human adenovirus 5 [6]) [%] | Ratio CC50/IC50 [7] | Activity (A549) | fold change (FC) (Human adenovirus 5 [8]) | Ratio CC50/IC50 [10] | inhibition (Human adenovirus 5 [11]) | inhibition at 50 µM (Human adenovirus 5 [12]) [%] | inhibition (Human adenovirus 5 [13])
CC(C)(C)OC(=O)N1CCN(C(=O)Nc2ccc([N+](=O)[O-])cc2)C(c2ccccc2)C1 (stereo unspecified) | 3.4 | 4.8 | 32.5 | 77.96 | 80.7 | 161 | Dose-dependent effect | 265.5 | 96 | 47.3 | Non-toxic | 211.7 | 33.6 | Dose-dependent effect | 80 | –
O=C(c1cc2ccccc2o1)N1CCN(C(=O)Nc2ccc(Cl)cc2)C(c2ccccc2)C1 (stereo unspecified) | 2.5 | 3.4 | – | 77.71 | 78.9 | 194 | Dose-dependent effect | 27.4 | 100 | 79 | Non-toxic | 9.9 | 56.9 | – | 33 | –
O=C(c1cc2ccccc2o1)N1CCN(C(=O)Nc2ccccc2[N+](=O)[O-])C(c2ccccc2)C1 (stereo unspecified) | 2.5 | 2.3 | – | 79.26 | 73.1 | 132 | Dose-dependent effect | 46.5 | 100 | 53.3 | Non-toxic | 34.5 | 57.3 | – | 38 | –

Continued by falling IC50 (Human adenovirus 5 [4]), values first:

IC50 (Human adenovirus 5 [4]) [µM] | IC50 [9] [µM] | IC50 (Human adenovirus 5 [11]) [µM] | SMILES | Activity (Human adenovirus 5 [1]) [%] | inhibition at 50 µM (Human adenovirus 5 [2]) [%] | CC50 at 48 h [3] [µM] | inhibition (Human adenovirus 5 [4]) | fold change (FC) [5] | inhibition at 10 µM (Human adenovirus 5 [6]) [%] | Ratio CC50/IC50 [7] | Activity (A549) | fold change (FC) (Human adenovirus 5 [8]) | Ratio CC50/IC50 [10] | inhibition (Human adenovirus 5 [11]) | inhibition at 50 µM (Human adenovirus 5 [12]) [%] | inhibition (Human adenovirus 5 [13])
4.7 | 3.9 | – | N#Cc1ccc(NC(=O)N2CCN(C(=O)c3cc4ccccc4o3)CC2c2ccccc2)cc1 (stereo unspecified) | 81.05 | 88.5 | 200 | Dose-dependent effect | 60.9 | 98 | 42.7 | Non-toxic | 16.9 | 51.2 | – | 63 | –
2.1 | 3.5 | 26.7 | O=C(c1cc2ccccc2o1)N1CCN(C(=O)Nc2ccc([N+](=O)[O-])cc2)C(c2ccccc2)C1 (stereo unspecified) | 77.99 | 80.9 | 194 | Dose-dependent effect | 34.6 | 100 | 93.5 | Non-toxic | 35.7 | 55.4 | Dose-dependent effect | 84 | –
1.1 | 1.8 | – | O=C(c1cc2ccccc2o1)N1CCN(C(=O)Nc2cc(C(F)(F)F)ccc2Cl)C(c2ccccc2)C1 (stereo unspecified) | 85 | – | 131 | Dose-dependent effect | 33.2 | 97 | 116.2 | – | 60.3 | 72.7 | – | 30 | inactive
